Data reported in patent publication US20230339991A1, “HYPOXIA-ACTIVATED DNA ALKYLATING AGENT AND MEDICAL USE THEREOF” (ASCENTAWITS PHARMACEUTICALS, LTD., priority 2020, published 2023).
Values joined by “and” are separate entries in the source; they are usually repeats but may differ in a detail not shown here. Identical values can stand only once. Like-named read-outs stand apart in the source and are kept apart here.

Assays:
PANC1 cells = test: Clonogenic assay, PANC1; format: cell-based, human; details: Homo sapiens, PANC-1, 3 h
Method: (§1) The following PSN-1 cells, PANC1 cells, MiaPaCa-2 cells, H460 cells, DLD-1 WT (wild type) cells, DLD-1 BRCA2 KO (BRCA2 deletion) cells were seeded in 10 cm vitreous cell culture plates at specific cell numbers and incubated for 2 days at 37° C. and under the conditions of 5% CO2, 95% air and 100% relative humidity. On day 3, test compounds TH302 or AST-002-P2 at the specific concentrations were added to the cells, and incubated for 3 hours together with the cells under normoxic (21% O2) and hypoxic conditions (<0.01% O2), respectively. After cells were stimulated by compounds, the cells were washed once with 1×PBS and digested into single cells with pancreatic enzymes for cell counting. The above cells in specific cell numbers were reseeded in a new culture plate and cultured for 7 days to perform single cell colony formation. When single cells in compound culture plates stimulated under normoxic conditions proliferated to about 50 cells, the cultures were removed and stained with 0.5% crystal violet for 40 minutes. After staining, cells were counted for colonies using Colony Counter (VWR) and the IC90 was calculated.

H460 cells = test: Clonogenic assay, H460; format: cell-based, human; details: for IC90: Homo sapiens, NCI-H460, 3 h
Method: as §1

[1] = tested on: DLD-1 WT (wild type) cells; test: Clonogenic assay, DLD-1 WT; format: cell-based; details: Homo sapiens, 3 h
Method: as §1

[2] = Blood-brain barrier experiment, brain and plasma concentrations after IV dosing; format: in vivo, CD-1 mice; details: for half-life: read-out: T½ (converted)
Method: Three CD-1 […] were administered 1 mg/kg of the test compound intravenously at each time point. Blood and brain tissue were collected at 5 min, 15 min, 1 h, 2 h, 4 h and 8 h after administration.

[3] = Maximal tolerance dose (MTD) test, compound C, two cycles; format: in vivo, ICR mice; details: both sexes, mouse, in vivo; intravenous; ICR mice; read-out: maximal tolerance dose (MTD), overall
Method: (§2) 18 ICR mice, 9 females/9 males, were randomly divided into compound C 10 mg/kg group, 20 mg/kg group and 40 mg/kg group according to gender and body weight, with 3 females/3 males in each group. […] It was administered once a day for 5 continuous days, and recovered for 1 week after the last administration. […] To explore the maximal tolerance dose, two cycles of administration were required. The dosage was adjusted and the administration was continued for 5 days.
(§3) The animals were closely observed for 2 h after administration on the administration day and once a day in the morning and once in the afternoon on the non-administration day. Body weight and dietary intake were measured twice a week during the test period. Dead animals and all surviving animals after 14 days from the last administration were subjected to autopsy. The autopsy was performed on the pathological organs, and histopathological examination of the pathological organs was performed.

ICR mice = test: as above; format: in vivo; details: for maximal tolerance dose: intravenous, ICR mice
Method: as §2, §3

[4] = 21% O2, read-out: IC90 Normoxia
[5] = <0.01% O2, read-out: IC90 Hypoxia
[6] = CD-1, mouse, plasma, IV 1 mg/kg
[7] = IV 1 mg/kg, 0.083 h, single animals, 1 mg/kg
[8] = IV 1 mg/kg, 0.25 h, single animals, 1 mg/kg
[9] = IV 1 mg/kg, 1 h, single animals, 1 mg/kg
[10] = IV 1 mg/kg, 2 h, single animals, 1 mg/kg
[11] = IV 1 mg/kg, 4 h, single animals
[12] = IV 1 mg/kg, 8 h, single animals

With `O=[N+]([O-])c1ccc([C@@H](OP(=O)(N2CC2)N2CC2)C(F)(F)F)c2ccccc12` (single isomer, unassigned) [Compound C] the IC90 (PANC1 cells; [4]) was greater than 10000 nM, the IC90 (PANC1 cells; [5]) was greater than 1000 nM and the IC90 (H460 cells; [4]) was 66 nM. It also gave an IC90 (H460 cells; [5]) of 41 nM, an HCR (H460 cells; IC90 ratio normoxic/N2) of 1.6 and an IC90 [1, 4] greater than 140 nM. For the same compound, the IC90 [1, 5] was greater than 140 nM, the concentration at 0.083 h ([2]; CD-1, mouse, brain, iv, 1 mg/kg, IV 1 mg/kg, 0.083 h, single animals, read-out: Brain concentration) was 415 ng/g and the concentration at 0.25 h ([2]; CD-1, mouse, brain, iv, 1 mg/kg, IV 1 mg/kg, 0.25 h, single animals, read-out: Brain concentration) was 146 ng/g. It also gave a concentration at 1 h ([2]; CD-1, mouse, brain, iv, 1 mg/kg, IV 1 mg/kg, 1 h, single animals, read-out: Brain concentration) of 28.6 ng/g, a Kp at 0.083 h ([2]; CD-1, mouse, brain/plasma, iv, 1 mg/kg, IV 1 mg/kg, 0.083 h, read-out: Mean Ratio (Brain/Plasma)) of 1.07 and a Kp at 0.083 h ([2]; CD-1, mouse, brain/plasma, iv, 1 mg/kg, IV 1 mg/kg, 0.083 h, single animals, read-out: Ratio (Brain/Plasma)) of 0.99. It also gave a Kp at 0.25 h ([2]; CD-1, mouse, brain/plasma, iv, 1 mg/kg, IV 1 mg/kg, 0.25 h, single animals, read-out: Ratio (Brain/Plasma)) of 0.82, a Kp at 1 h ([2]; CD-1, mouse, brain/plasma, iv, 1 mg/kg, IV 1 mg/kg, 1 h, read-out: Mean Ratio (Brain/Plasma)) of 0.54 and a Kp at 1 h ([2]; CD-1, mouse, brain/plasma, iv, 1 mg/kg, IV 1 mg/kg, 1 h, single animals, read-out: Ratio (Brain/Plasma)) of 0.52. It also gave a Kp at 2 h ([2]; CD-1, mouse, brain/plasma, iv, 1 mg/kg, IV 1 mg/kg, 2 h, read-out: Mean Ratio (Brain/Plasma)) of 1.11, a Kp ([2]; CD-1, mouse, brain/plasma, iv, 1 mg/kg, IV 1 mg/kg, read-out: AUClnf Ratio (Brain/Plasma)) of 0.73 and a concentration at 0.083 h ([2]; CD-1, mouse, plasma, iv, 1 mg/kg, IV 1 mg/kg, 0.083 h, single animals, read-out: Plasma concentration) of 417 ng/mL. The concentration at 0.25 h ([2]; CD-1, mouse, plasma, iv, 1 mg/kg, IV 1 mg/kg, 0.25 h, single animals, read-out: Plasma concentration) was 179 ng/mL, the half-life ([2]; CD-1, mouse, brain tissue, IV 1 mg/kg) was 21 min and the AUC(0-t) [2, 6] was 188 ng·h/mL. For the same compound, the C0 [2, 6] was 694 ng/mL, the half-life [2, 6] was 18 min and the Brain concentration [2, 7] was 541.99 ng/g and 377.29 ng/g. The Plasma concentration [2, 7] was 390.41 ng/mL and 456.85 ng/mL, the “Ratio (Brain/Plasma)” value [2, 7] was 1.39 and 0.83 and the Brain concentration [2, 8] was 131.63 ng/g and 120.75 ng/g. The Plasma concentration [2, 8] was 132.02 ng/mL and 154.92 ng/mL, the “Ratio (Brain/Plasma)” value [2, 8] was 1.00 and 0.78 and the Brain concentration [2, 9] was 18.01 ng/g and 15.01 ng/g. The Plasma concentration [2, 9] was 54.81 ng/mL and 25.61 ng/mL and 37.23 ng/mL, the “Ratio (Brain/Plasma)” value [2, 9] was 0.70 and 0.40 and the Brain concentration [2, 10] was 8.31 ng/g and 1.90 ng/g and BLOQ. The Plasma concentration [2, 10] was 4.69 ng/mL and 2.16 ng/mL and 1.64 ng/mL, the “Ratio (Brain/Plasma)” value [2, 10] was 0.88 and the Brain concentration [2, 11] was “BLOQ”. For the same compound, the Plasma concentration [2, 11] was “BLOQ”, the Brain concentration [2, 12] was “BLOQ” and the Plasma concentration [2, 12] was “BLOQ”. The AUClast ([2]; brain tissue, IV 1 mg/kg) was 136.59 ng·h/g, the AUClnf ([2]; brain tissue, IV 1 mg/kg) was 138.68 ng·h/g and the MRTlnf_obs ([2]; brain tissue, IV 1 mg/kg) was 20.4 min. The blood-brain barrier penetration ([2]; detected in brain tissue) was “can penetrate the blood-brain barrier”, the Cl_obs ([2]; plasma, IV 1 mg/kg) was 87.92 mL/min/kg and the MRTlnf_obs ([2]; plasma, IV 1 mg/kg) was 19.8 min. The Vss_obs ([2]; plasma, IV 1 mg/kg) was 1.73 L/kg, the MTD [3] was 20 to 40 mg/kg and the “animal deaths after first cycle” value (ICR mice; 10, 20 and 40 mg/kg i.v., continuous administration for 5 days) was “no animal death”. The animal deaths (ICR mice; 10/80 mg/kg group (first cycle 10, second cycle 80 mg/kg)) was 1/6, the animal deaths (ICR mice; 20/60 mg/kg group) was 3/6 and the animal deaths (ICR mice; 40/40 mg/kg group) was 1/6. The maximal tolerance dose (ICR mice; first cycle) was greater than 40 mg/kg and the maximal tolerance dose (ICR mice; second cycle) was less than 40 mg/kg.
